From patent publication US12448374B2, “Inhibitors of SARM1” (Disarm Therapeutics, Inc., priority 2018, dated 2025)

System: mouse dorsal root ganglion (DRG) neurons
Test: Axon degeneration assay in mouse DRG drop culture
Assay type: cell-based
Details: DRG neuron, protection of axon fragmentation, axonal transection or chemotoxic stimuli
Description: This Example illustrates an in vitro axon degeneration assay used to characterize compounds of Formula I. This assay is used to test the efficacy of the compounds of Formula I to prevent axonal degeneration in a mouse dorsal root ganglion (DRG) drop culture.
Mouse DRG Drop culture: Mouse dorsal root ganglion neurons (DRGs) were dissected out of E12.5 CD1 mice (50 ganglion per embryo) and incubated with 0.5% Trypsin solution containing 0.02% EDTA (Gibco) at 37° C. for 15 min. The cells were then triturated by gentle pipetting and washed 3 times with DRG growth medium (Neurobasal medium (Gibco) containing 2% B27 (Invitrogen), 100 ng/ml 2.5S NGF (Harland Bioproducts), 1 mM 5-fluoro-2′ deoxyuridine (Sigma), penicillin, and streptomycin). Cells were suspended in the DRG growth medium. DRG drop cultures were created by spotting 5000 cells/well into the center of each well of a 96-well tissue culture plate coated with poly-D-Lysine (0.1 mg/ml; Sigma) and laminin ([…]; Invitrogen). Cells were allowed to adhere to the plates in a humidified tissue culture incubator (5% CO2) for 15 min and then DRG growth medium was gently added ([…]).
Axon degeneration assay: Axonal degeneration was stimulated either by manual axonal transection using a scalpel blade, or chemotoxic stimuli. After an appropriate experimental time period, the DRG cultures were fixed in 1% PFA plus sucrose and kept in the fridge prior to imaging. Bright-field images of DRG axons and cell bodies were collected using the 20× water immersion lens of a Phenix automated confocal microscope (PerkinElmer) and quantitation of axonal performed using in-house developed scripts (Acapella, PerkinElmer).

SMILES | IC50 [µM]
Ic1c[nH]c2cnccc12 [Example 4] | < 10
Brc1c[nH]c2cnccc12 [Example 7] | < 10
Brc1csc2cnccc12 [Example 30] | 10 to 30

Molecular target: T1, SARM1 SAM-TIR (Homo sapiens, UniProt Q6SZW1)
T1 construct: This assay makes use of a fragment of the SARM1 molecule encompassing the SAM and TIR domains; made in house; host or cells: NRK1-HEK293T cells (transient transfection; clarified sonicated lysate used without purification)
T1 sequence (Q6SZW1 409-724 limits assumed): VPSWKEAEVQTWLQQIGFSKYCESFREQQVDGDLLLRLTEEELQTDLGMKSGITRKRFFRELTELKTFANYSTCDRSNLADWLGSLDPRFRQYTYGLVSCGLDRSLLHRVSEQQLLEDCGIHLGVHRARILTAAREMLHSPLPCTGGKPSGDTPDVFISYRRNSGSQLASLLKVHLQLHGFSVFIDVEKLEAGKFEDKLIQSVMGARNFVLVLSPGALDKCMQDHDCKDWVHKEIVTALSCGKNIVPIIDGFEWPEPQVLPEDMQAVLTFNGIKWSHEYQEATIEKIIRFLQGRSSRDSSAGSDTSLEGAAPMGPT
Test: SAM-TIR SARM1 IC50 assay (NADase activity, NAD+ cleavage)
Assay type: biochemical
Details: SAM-TIR lysate 5 μg/mL, 2 h pre-incubation, 5 μM NAD+, RapidFire MS readout
Source text: This Example describes an assay of SAM-TIR NADase activity and use of this assay to measure the efficacy of compounds of Formula I to block SARM1 mediated NAD+ cleavage. This assay is optimized in such a way as to characterize the efficacy of the compounds in Formula I to inhibit SARM1 activity and to calculate an IC50 value for each compound. This assay makes use of a fragment of the SARM1 molecule encompassing the SAM and TIR domains.
NRK1-HEK293T cells refers to a cell line that has been stably e transfected with an FCIV expression vector that expresses human Nicotinamide Riboside Kinase 1 (NRK1), an enzyme that converts the NAD+ biosynthetic precursor nicotinamide riboside (NR) to NMN, the immediate precursor of NAD+. When provided with NR this cell line augments intracellular NAD+ levels and maintains cell viability, when expressing SARM1 SAM-TIR. FIG. 2 illustrates that a NRK1-HEK293T stable line with NR supplementation maintains higher NAD+ levels upon SARM1-TIR expression. Data was generated from three independent NAD+ measurements from three independent transfection experiments, and normalized to data from a non-transfected experiment run concurrently. Data are presented as mean±SEM; Error bars: SEM; ***P<0.001 two tailed student's t-test.
NRK1-HEK293T cells were seeded onto 150 cm^2 plates at 20×10^6 cells per plate. The next day, the cells were transfected with 15 μg FCIV-SST (SAM-TIR expression plasmid, SEQ ID NO: 1) using X-[…]™ 9 DNA Transfection Reagent (Roche product #06365787001).
The cultures were supplemented with 1 mM NR at time of transfection to minimize toxicity from SAM-TIR overexpression. Forty-eight hours after transfection, cells were harvested, pelleted by centrifugation at 1,000 rpm (Sorvall ST 16R centrifuge, Thermo Fisher), and washed once with cold PBS (0.01 M phosphate buffered saline NaCl 0.138 M; KCl 0.0027 M; pH 7.4). The cells were resuspended in PBS with protease inhibitors (cOmplete™ protease inhibitor cocktail, Roche product #11873580001) and cell lysates were prepared by sonication (Branson Sonifer 450, output=3, 20 episodes of stroke). The lysates were centrifuged (12,000×g for 10 min at 4° C.) to remove cell debris and the supernatants (containing SARM1 SAM-TIR protein) were stored at −80° C. for later use in the in vitro SARM1 SAM-TIR NADase assay (see below). Protein concentration was determined by the Bicinchoninic (BCA) method and used to normalize lysate concentrations.
The enzymatic assay was performed in a 384-well polypropylene plate in Dulbecco's PBS buffer in a final assay volume of 20 μL. SAM-TIR lysate with a final concentration of 5 μg/mL was pre-incubated with the respective compound at 1% DMSO final assay concentration over 2 h at room temperature. The reaction was initiated by addition of 5 μM final assay concentration of NAD+ as substrate. After a 2 hr room temperature incubation, the reaction was terminated with 40 μL of stop solution of 7.5% trichloroactetic acid in acetonitrile. The NAD+ and ADPR concentrations were analyzed by a RapidFire High Throughput Mass Spectrometry System (Agilent Technologies, Santa Clara, CA) using an API4000 triple quadrupole mass spectrometer (AB Sciex Framingham, MA).

SMILES | IC50 [µM]
Brc1cccc2nncn12 [Example 3] | > 50
Brc1cccc2[nH]ncc12 [Example 5] | 10 to 30
COCCCn1cc(Br)c2ccncc21 [Example 10] | > 50
NC(=O)Cn1cc(Br)c2ccncc21 [Example 11] | > 50
COCCn1cc(Br)c2ccncc21 [Example 12] | 30 to 50
CC(C)n1cc(Br)c2ccncc21 [Example 13] | 30 to 50
Oc1nnc2cnccn12 [Example 27] | > 50
Cc1ccc2nc[nH]c2c1Br [Example 29] | 30 to 50
Brc1n[nH]c2cnccc12 [Example 31] | 10 to 30
Brc1cncc2[nH]ncc12 [Example 32] | < 10
c1cc2ccsc2cn1 [Example 33] | < 10
N#Cc1cc2ccncc2[nH]1 [Example 37] | > 50
CCOC(=O)c1[nH]c2cnccc2c1Br [Example 38] | > 50
O=S1(=O)C=C(Br)c2ccncc21 [Example 40] | 30 to 50
Ic1csc2cnncc12 [Example 41] | < 10
Ic1c[nH]c2nnccc12 [Example 42] | > 50
Brc1csc2cnncc12 [Example 43] | < 10
Brc1c[nH]c2nnccc12 [Example 44] | > 50

Now from value to compound:

IC50 [µM] | SMILES
< 10 | Ic1c[nH]c2cnccc12 [Example 4]
< 10 | Clc1nccc2c(Br)c[nH]c12 [Example 6]
< 10 | Brc1c[nH]c2cnccc12 [Example 7]
< 10 | Clc1c[nH]c2cnccc12 [Example 9]
< 10 | CCn1cc(I)c2ccncc21 [Example 14]
< 10 | Cn1cc(I)c2ccncc21 [Example 15]
< 10 | Cn1cc(Br)c2ccncc21 [Example 16]
< 10 | Cn1cnc2cnccc21 [Example 28]
< 10 | Brc1csc2cnccc12 [Example 30]
